Results from patent US6525001B1, “Substituted pyrimidine and pyridine herbicides” (Mid-American Commercialization Corporation, priority 1997, dated 2003).

How the values were obtained:
Assay type in all cases: in vivo
[1] = tested on: cocklebur (Xanthium strumarium); assay: Test B pre-/postemergence; design: key: 0 is no effect; 10 is complete control; details: for Cocklebur plant response rating: Preemergence
In short: (§1)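 Scored visually 0 (none) to 10 (complete control) against untreated plants after twelve to sixteen greenhouse days. Test chemicals, formulated in surfactant-containing non-phytotoxic solvent, applied to soil after planting and, separately, onto 1- to 4-leaf (2–18 cm) plants.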

[2] = tested on: pigweed (Amaranthus retroflexus); assay: Test B pre-/postemergence; design: key: 0 is no effect; 10 is complete control
In short: as §1

[3] = tested on: velvetleaf (Abutilon theophrasti); assay: Test B pre-/postemergence; design: key: 0 is no effect; 10 is complete control
In short: as §1

[4] = tested on: purple nutsedge (Cyperus rotundus); assay: Test B pre-/postemergence; design: key: 0 is no effect; 10 is complete control
In short: as §1

[5] = tested on: crabgrass (Digitaria sanguinalis); assay: Test B pre-/postemergence; design: key: 0 is no effect; 10 is complete control; details: for Crabgrass plant response rating: Preemergence
In short: as §1

[6] = tested on: giant foxtail (Setaria faberii); assay: Test B pre-/postemergence; design: key: 0 is no effect; 10 is complete control
In short: as §1

wild oat (Avena fatua) = assay: Test B pre-/postemergence; design: key: 0 is no effect; 10 is complete control
In short: as §1

[7] = tested on: blackgrass (Alopecurus myosuroides); assay: Test B pre-/postemergence; design: key: 0 is no effect; 10 is complete control; details: for Blackgrass plant response rating: Preemergence
In short: as §1

corn (Zea mays) = assay: Test B pre-/postemergence; design: key: 0 is no effect; 10 is complete control; details: for Corn plant response rating: Preemergence
In short: as §1

[8] = tested on: momingglory (Ipomoea hederacea); assay: Test B pre-/postemergence; design: key: 0 is no effect; 10 is complete control
In short: as §1

[9] = tested on: sugar beet (Beta vulgaris); assay: Test B pre-/postemergence; design: key: 0 is no effect; 10 is complete control
In short: as §1

soybean (Glycine max) = assay: Test B pre-/postemergence; design: key: 0 is no effect; 10 is complete control
In short: as §1

rape (Brassica napus) = assay: Test B pre-/postemergence; design: key: 0 is no effect; 10 is complete control
In short: as §1

[10] = tested on: broadleaf signalgrass (Brachiaria decumbens); assay: Test B pre-/postemergence; design: key: 0 is no effect; 10 is complete control; details: for B. signalgrass plant response rating: Preemergence
In short: as §1

[11] = tested on: wheat (Triticum aestivum); assay: Test B pre-/postemergence; design: key: 0 is no effect; 10 is complete control
In short: as §1

[12] = tested on: bedstraw (Galium aparine); assay: Test B pre-/postemergence; design: key: 0 is no effect; 10 is complete control; details: for Bedstraw plant response rating: Preemergence
In short: as §1

rice (Oryza sativa) = assay: Test B flood test
In short: (§2)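 Flood test on plants grown to the 2-leaf stage; treated plants kept in greenhouse twelve to sixteen days, then visually rated against controls on a 0 (no effect) to 10 (complete control) scale.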

[13] = tested on: duck salad (Heteranthera limosa); assay: Test B flood test
In short: as §2

[14] = tested on: bamyardgrass (Echinochloa crus-galli); assay: Test B flood test
In short: as §2

[15] = tested on: smallflower flatsedge (Cyperus difformis); assay: Test B flood test
In short: as §2

[16] = Rate 250 g/ha, Postemergence (so in the source)
[17] = Rate 62 g/ha, Postemergence (flood test)
[18] = Rate 125 g/ha, Postemergence section (flood test species)
[19] = Rate 250 g/ha, Postemergence (flood test species)
[20] = Rate 125 g/ha, Postemergence, flood test

## Cc1cnc(-c2ccc(C#N)cc2)nc1Cc1cccc(C(F)(F)F)c1 [Compound 30]
[1]; Rate 62 g/ha, Postemergence
  Plant response rating, Cocklebur: 5
[1]; Rate 62 g/ha
  Cocklebur plant response rating: 0
[1]; Rate 125 g/ha, Postemergence
  Plant response rating, Cocklebur: 8
[1]; Rate 125 g/ha
  Cocklebur plant response rating: 0
[1]; Rate 250 g/ha, Postemergence
  Plant response rating, Cocklebur: 8
[1]; [16]
  Plant response rating, Cocklebur: 0
[2]; Rate 62 g/ha, Postemergence
  Plant response rating, Redroot pigweed: 7
[2]; Rate 62 g/ha, Preemergence
  Redroot pigweed plant response rating: 2
[2]; Rate 125 g/ha, Postemergence
  Redroot pigweed plant response rating: 9
[2]; Rate 125 g/ha, Preemergence
  Redroot pigweed plant response rating: 7
[2]; Rate 250 g/ha, Postemergence
  Plant response rating, Redroot pigweed: 9
[2]; [16]
  Plant response rating, Redroot pigweed: 10
[3]; Rate 62 g/ha, Postemergence
  Plant response rating, Velvetleaf: 5
[3]; Rate 62 g/ha, Preemergence
  Velvetleaf plant response rating: 1
[3]; Rate 125 g/ha, Postemergence
  Velvetleaf plant response rating: 6
[3]; Rate 125 g/ha, Preemergence
  Plant response rating, Velvetleaf: 2
[3]; Rate 250 g/ha, Postemergence
  Plant response rating, Velvetleaf: 8
[3]; [16]
  Plant response rating, Velvetleaf: 6
[4]; Rate 62 g/ha, Postemergence
  Plant response rating, Nutsedge: 0
[4]; Rate 62 g/ha, Preemergence
  Nutsedge plant response rating: 0
[4]; Rate 125 g/ha, Postemergence
  Nutsedge plant response rating: 0
[4]; Rate 125 g/ha, Preemergence
  Nutsedge plant response rating: 0
[4]; Rate 250 g/ha, Postemergence
  Plant response rating, Nutsedge: 2
[4]; [16]
  Plant response rating, Nutsedge: 0
[5]; Rate 62 g/ha, Postemergence
  Plant response rating, Crabgrass: 1
[5]; Rate 62 g/ha
  Crabgrass plant response rating: 1
[5]; Rate 125 g/ha, Postemergence
  Plant response rating, Crabgrass: 1
[5]; Rate 125 g/ha
  Crabgrass plant response rating: 3
[5]; Rate 250 g/ha, Postemergence
  Plant response rating, Crabgrass: 7
[5]; [16]
  Plant response rating, Crabgrass: 8
[6]; Rate 62 g/ha, Postemergence
  Plant response rating, Giant foxtail: 1
[6]; Rate 62 g/ha, Preemergence
  Giant foxtail plant response rating: 1
[6]; Rate 125 g/ha, Postemergence
  Giant foxtail plant response rating: 1
[6]; Rate 125 g/ha, Preemergence
  Giant foxtail plant response rating: 5
[6]; Rate 250 g/ha, Postemergence
  Plant response rating, Giant foxtail: 2
[6]; [16]
  Plant response rating, Giant foxtail: 9
Wild oat (Avena fatua); Rate 62 g/ha, Postemergence
  Wild oats plant response rating: 1
Wild oat (Avena fatua); Rate 62 g/ha, Preemergence
  Wild oats plant response rating: 1
Wild oat (Avena fatua); Rate 125 g/ha, Postemergence
  Wild oats plant response rating: 2
Wild oat (Avena fatua); Rate 125 g/ha, Preemergence
  Plant response rating, Wild oats: 1
Wild oat (Avena fatua); Rate 250 g/ha, Postemergence
  Plant response rating, Wild oats: 2
Wild oat (Avena fatua); [16]
  Plant response rating, Wild oats: 2
[7]; Rate 62 g/ha, Postemergence
  Plant response rating, Blackgrass: 0
[7]; Rate 62 g/ha
  Blackgrass plant response rating: 0
[7]; Rate 125 g/ha, Postemergence
  Plant response rating, Blackgrass: 1
[7]; Rate 125 g/ha
  Blackgrass plant response rating: 2
[7]; Rate 250 g/ha, Postemergence
  Plant response rating, Blackgrass: 1
[7]; [16]
  Plant response rating, Blackgrass: 2
Corn (Zea mays); Rate 62 g/ha, Postemergence
  Plant response rating, Corn: 1
Corn (Zea mays); Rate 62 g/ha
  Corn plant response rating: 0
Corn (Zea mays); Rate 125 g/ha, Postemergence
  Plant response rating, Corn: 2
Corn (Zea mays); Rate 125 g/ha
  Corn plant response rating: 0
Corn (Zea mays); Rate 250 g/ha, Postemergence
  Plant response rating, Corn: 2
Corn (Zea mays); [16]
  Plant response rating, Corn: 0
[8]; Rate 62 g/ha, Postemergence
  Plant response rating, Morningglory: 2
[8]; Rate 62 g/ha, Preemergence
  Morningglory plant response rating: 1
[8]; Rate 125 g/ha, Postemergence
  Morningglory plant response rating: 5
[8]; Rate 125 g/ha, Preemergence
  Morningglory plant response rating: 1
[8]; Rate 250 g/ha, Postemergence
  Plant response rating, Morningglory: 9
[8]; [16]
  Plant response rating, Morningglory: 3
[9]; Rate 62 g/ha, Postemergence
  Plant response rating, Sugarbeets: 10
[9]; Rate 62 g/ha, Preemergence
  Sugarbeets plant response rating: 6
[9]; Rate 125 g/ha, Postemergence
  Sugarbeets plant response rating: 10
[9]; Rate 125 g/ha, Preemergence
  Plant response rating, Sugarbeets: 9
[9]; Rate 250 g/ha, Postemergence
  Plant response rating, Sugarbeets: 10
[9]; [16]
  Plant response rating, Sugarbeets: 10
Soybean (Glycine max); Rate 62 g/ha, Postemergence
  Plant response rating, Soybean: 3
Soybean (Glycine max); Rate 62 g/ha, Preemergence
  Soybean plant response rating: 0
Soybean (Glycine max); Rate 125 g/ha, Postemergence
  Soybean plant response rating: 3
Soybean (Glycine max); Rate 125 g/ha, Preemergence
  Plant response rating, Soybean: 0
Soybean (Glycine max); Rate 250 g/ha, Postemergence
  Plant response rating, Soybean: 6
Soybean (Glycine max); [16]
  Plant response rating, Soybean: 0
Rape (Brassica napus); Rate 62 g/ha, Postemergence
  Plant response rating, Rape: 4
Rape (Brassica napus); Rate 62 g/ha, Preemergence
  Rape plant response rating: 0
Rape (Brassica napus); Rate 125 g/ha, Postemergence
  Rape plant response rating: 8
Rape (Brassica napus); Rate 125 g/ha, Preemergence
  Rape plant response rating: 2
Rape (Brassica napus); Rate 250 g/ha, Postemergence
  Plant response rating, Rape: 10
Rape (Brassica napus); [16]
  Plant response rating, Rape: 3
[10]; Rate 62 g/ha, Postemergence
  Plant response rating, B. signalgrass: 1
[10]; Rate 62 g/ha
  B. signalgrass plant response rating: 1
[10]; Rate 125 g/ha, Postemergence
  Plant response rating, B. signalgrass: 2
[10]; Rate 125 g/ha
  B. signalgrass plant response rating: 4
[10]; Rate 250 g/ha, Postemergence
  Plant response rating, B. signalgrass: 2
[10]; Rate 250 g/ha, Postemergence as printed in head r139 (second section for compounds 26-50)
  Plant response rating, B. signalgrass: 6
[11]; Rate 62 g/ha, Postemergence
  Wheat plant response rating: 1
[11]; Rate 62 g/ha, Preemergence
  Wheat plant response rating: 0
[11]; Rate 125 g/ha, Postemergence
  Wheat plant response rating: 2
[11]; Rate 125 g/ha, Preemergence
  Plant response rating, Wheat: 0
[11]; Rate 250 g/ha, Postemergence
  Plant response rating, Wheat: 2
[11]; [16]
  Plant response rating, Wheat: 0
[12]; Rate 62 g/ha, Postemergence
  Plant response rating, Bedstraw: 1
[12]; Rate 62 g/ha
  Bedstraw plant response rating: 3
[12]; Rate 125 g/ha, Postemergence
  Plant response rating, Bedstraw: 6
[12]; Rate 125 g/ha
  Bedstraw plant response rating: 10
[12]; Rate 250 g/ha, Postemergence
  Plant response rating, Bedstraw: 6
[12]; [16]
  Plant response rating, Bedstraw: 10
Rice (Oryza sativa); [17]
  Plant response rating, Rice: 1
Rice (Oryza sativa); [18]
  Rice plant response rating: 1
Rice (Oryza sativa); [19]
  Plant response rating, Rice: 2
[13]; [17]
  Plant response rating, Ducksalad: 3
[13]; [20]
  Plant response rating, Ducksalad: 4
[13]; [19]
  Plant response rating, Ducksalad: 5
[14]; [17]
  Plant response rating, Barnyardgrass: 3
[14]; [20]
  Plant response rating, Barnyardgrass: 3
[14]; [19]
  Plant response rating, Barnyardgrass: 4
[15]; [17]
  Plant response rating, S. Flatsedge: 4
[15]; [18]
  S. Flatsedge plant response rating: 6
[15]; [19]
  Plant response rating, S. Flatsedge: 8
